IC50 data for 8 compounds are collected here from patent US20250368649A1, “TETRAHYDROPYRIDOPYRIMIDINE PAN-KRAS INHIBITORS” (Mirati Therapeutics, Inc., priority 2022, published 2025).

One test deals with KRas G12R (Homo sapiens, UniProt P01116, G12R). Kind of test: biochemical. To be noted: Binding to KRas (IC50 nM) G12R, TR-FRET displacement, KRas G12R. (In general: TR-FRET usually uses a lanthanide donor and a delayed reading to cut background.)
The subject of the next test is HCT116 cells. Kind of test: Inhibition of KRas-mediated phosphorylation of ERK (Cisbio HTRF pERK), HCT116 cells. The test is classed as cell-based. To be noted: Homo sapiens, HCT-116, 3 h, 3 hr compound incubation, Cisbio pERK HTRF.
A further test deals with H358 cells. Kind of test: Inhibition of KRas-mediated phosphorylation of ERK (Cisbio HTRF pERK), H358 cells. To be noted: Homo sapiens, NCI-H358, 3 h, 3 hr compound incubation, Cisbio pERK HTRF. The test is classed as cell-based.
In a further test the test system is PSN1 cells. Kind of test: Inhibition of KRas-mediated phosphorylation of ERK (Cisbio HTRF pERK), PSN1 cells. The test is classed as cell-based. To be noted: Homo sapiens, PSN1, 3 h, 3 hour compound incubation, Cisbio pERK HTRF. The essentials: (§1)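 Seeding density of 6,000 cells per well was used, with cultures kept in RPMI/10% FBS from day 1.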
In a further test the test system is H460 cells. Kind of test: Inhibition of KRas-mediated phosphorylation of ERK (Cisbio HTRF pERK), H460 cells. The test is classed as cell-based. To be noted: Homo sapiens, NCI-H460, 3 h, 3 hr compound incubation, Cisbio pERK HTRF.
Another test deals with H727 cells. Kind of test: Inhibition of KRas-mediated phosphorylation of ERK (Cisbio HTRF pERK), H727 cells. The test is classed as cell-based. The note with it: Homo sapiens, NCI-H727, 3 h, 3 hr compound incubation, Cisbio pERK HTRF.
A further test has as its system ASPC1 cells. Kind of test: Inhibition of KRas-mediated phosphorylation of ERK (Cisbio HTRF pERK), ASPC1 cells. The test is classed as cell-based. The note with it: Homo sapiens, ASPC1, 3 h, AsPC-1 cells; 3 hr compound incubation; Cisbio pERK HTRF.
For a further test, the target named is KRas G12V (Homo sapiens, UniProt P01116, G12V). Kind of test: biochemical. To be noted: Binding to KRas (IC50 nM) G12V, TR-FRET displacement, KRas G12V.
The target in a further test is KRas G12D (Homo sapiens, UniProt P01116, G12D). Kind of test: biochemical. The note with it: Binding to KRas (IC50 nM) G12D, TR-FRET displacement, KRas G12D.
In another test the test system is A549 cells. Kind of test: Inhibition of KRas-mediated phosphorylation of ERK (Cisbio HTRF pERK), A549 cells. The test is classed as cell-based. To be noted: Homo sapiens, A549, 3 h, 3 hr compound incubation, Cisbio pERK HTRF.
For a further test, the system named is MKN1 cells. Kind of test: Inhibition of KRas-mediated phosphorylation of ERK (Cisbio HTRF pERK), MKN1 cells. The test is classed as cell-based. The note with it: Homo sapiens, MKN-1, 3 hour compound incubation, Cisbio pERK HTRF. The essentials: as §1

KRas G12V, sequence (P01116 1-169 isoform P01116-2 G12V): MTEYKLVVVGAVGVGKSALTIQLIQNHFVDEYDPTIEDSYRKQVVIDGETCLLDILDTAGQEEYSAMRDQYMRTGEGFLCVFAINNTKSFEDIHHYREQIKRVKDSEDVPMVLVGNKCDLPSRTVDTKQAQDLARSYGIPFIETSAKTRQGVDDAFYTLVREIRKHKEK
KRas G12R, sequence (P01116 1-169 isoform P01116-2 G12R): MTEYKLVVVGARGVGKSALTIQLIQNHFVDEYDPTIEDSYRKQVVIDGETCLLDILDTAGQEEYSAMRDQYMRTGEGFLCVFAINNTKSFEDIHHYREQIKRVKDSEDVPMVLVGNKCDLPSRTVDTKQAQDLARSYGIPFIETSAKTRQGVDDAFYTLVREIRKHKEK
KRas G12D, sequence (P01116 1-169 isoform P01116-2 G12D): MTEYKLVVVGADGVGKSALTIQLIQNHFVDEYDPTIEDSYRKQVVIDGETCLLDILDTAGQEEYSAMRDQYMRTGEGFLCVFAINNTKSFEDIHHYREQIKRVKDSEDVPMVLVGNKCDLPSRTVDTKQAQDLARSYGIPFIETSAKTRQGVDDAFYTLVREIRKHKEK

Regarding `CCc1c(F)ccc2cc(O)cc(N3CCc4c(nc(OC[C@@]56CCCN5C[C@H](F)C6)nc4N4CCCCn5nc(C(=O)N(C)C)c(Cl)c5C4)C3)c12` [Example 589, 3-chloro-5-(7-(8-ethyl-7-fluoro-3-hydroxynaphthalen-1-yl)-2-(((2R,7aS)-2-fluorotetrahydro-1H-pyrrolizin-7a(5H)-yl)methoxy)-5,6,7,8-tetrahydropyrido[3,4-d]pyrimidin-4-yl)-N,N-dimethyl-4,5,6,7,8,9-hexahydropyrazolo[1,5-a][1,4] diazocine-2-carboxamide], the half-inhibitory concentration (IC50) (commonly the concentration needed to halve the response being measured) was less than 2 nM on KRas G12R; 30 nM in the test on HCT116 cells; 2 nM in the test on H358 cells; 1080 nM with PSN1 cells; 16 nM in the test on H460 cells; 3 nM with H727 cells. For the same compound, the IC50 in the test with ASPC1 cells was 6 nM; on KRas G12V, less than 2 nM; at KRas G12D it was less than 2 nM; in the test with A549 cells, 6 nM; with MKN1 cells it was 2.5 nM.

For the compound `CCc1c(F)ccc2cc(O)cc(N3CCc4c(nc(OC[C@@]56CCCN5C[C@H](F)C6)nc4N4CCCCn5nc(C(=O)N(C)C6CC6)cc5C4)C3)c12` [Example 592, N-cyclopropyl-5-(7-(8-ethyl-7-fluoro-3-hydroxynaphthalen-1-yl)-2-(((2R,7aS)-2-fluorotetrahydro-1H-pyrrolizin-7a(5H)-yl)methoxy)-5,6,7,8-tetrahydropyrido[3,4-d]pyrimidin-4-yl)-N-methyl-4,5,6,7,8,9-hexahydropyrazolo[1,5-a][1,4] diazocine-2-carboxamide], the concentration for half-maximal inhibition (IC50) is less than 2 nM on KRas G12R; 148 nM in the test on HCT116 cells; 4 nM in the test on H358 cells; 3450 nM with PSN1 cells; 50 nM in the test on H460 cells; 8 nM in the test on H727 cells. Moreover, the half-inhibitory concentration (IC50) with ASPC1 cells is 14 nM; on KRas G12V, less than 2 nM; on KRas G12D, less than 2 nM; with A549 cells it was 29 nM; in the test on MKN1 cells it was 11 nM.

Consider `CCc1c(F)ccc2cc(O)cc(N3CCc4c(nc(OC[C@]56CCCN5[C@H](CNS(=O)(=O)N(C)C)CC6)nc4N4CCCn5nc(C(=O)N(C)C)cc5C4)C3)c12` [Example 593, 5-(2-(((3S,7aR)-3-(((N,N-dimethylsulfamoyl)amino)methyl)tetrahydro-1H-pyrrolizin-7a(5H)-yl)methoxy)-7-(8-ethyl-7-fluoro-3-hydroxynaphthalen-1-yl)-5,6,7,8-tetrahydropyrido[3,4-d]pyrimidin-4-yl)-N,N-dimethyl-5,6,7,8-tetrahydro-4H-pyrazolo[1,5-a][1,4]diazepine-2-carboxamide], for which the half-inhibitory concentration (IC50) at KRas G12R is less than 2 nM; in the test with HCT116 cells, 515 nM; in the test with H358 cells, 16 nM; with PSN1 cells it was 9360 nM; in the test on H460 cells, 158 nM; with H727 cells, 50 nM. Moreover, the IC50 was 19 nM in the test with ASPC1 cells; less than 2 nM at KRas G12V; less than 2 nM at KRas G12D; 114 nM with A549 cells; 49.1 nM in the test with MKN1 cells.

Turning to `CCc1c(F)ccc2cc(O)cc(N3CCc4c(nc(OCC5(CN(C)C)CC5)nc4N4CC(C)CC(CO)C4)C3)c12` (stereo not shown) [Example 596, 4-(2-((1-((dimethylamino)methyl)cyclopropyl)methoxy)-4-(3-(hydroxymethyl)-5-methylpiperidin-1-yl)-5,8-dihydropyrido[3,4-d]pyrimidin-7(6H)-yl)-5-ethyl-6-fluoronaphthalen-2-ol], the half-maximal inhibitory concentration (IC50) is 9 nM on KRas G12R; 3340 nM with HCT116 cells; 595 nM with H358 cells; greater than 10000 nM in the test with PSN1 cells; 1280 nM with H460 cells; 2490 nM with H727 cells. In addition, the 50% inhibitory concentration (IC50) in the test with ASPC1 cells was 1920 nM; on KRas G12V, 7 nM; on KRas G12D, 11 nM; in the test with A549 cells, 2670 nM; with MKN1 cells it was greater than 10000 nM.

Turning to `CCc1c(F)ccc2cc(O)cc(N3CCc4c(nc(OCC5(CN(C)C)CC5)nc4N4CCCC(c5cn(C)nn5)C4)C3)c12` (stereo not shown) [Example 598, 4-(2-((1-((dimethylamino)methyl)cyclopropyl)methoxy)-4-(3-(1-methyl-1H-1,2,3-triazol-4-yl)piperidin-1-yl)-5,8-dihydropyrido[3,4-d]pyrimidin-7(6H)-yl)-5-ethyl-6-fluoronaphthalen-2-ol], the IC50 at KRas G12R was 8 nM; in the test on HCT116 cells, 4280 nM; in the test on H358 cells, 757 nM; in the test on PSN1 cells, greater than 10000 nM; in the test on H460 cells, 1260 nM; in the test with H727 cells, 1740 nM. The IC50 was 2380 nM with ASPC1 cells; 12 nM on KRas G12V; 16 nM at KRas G12D; 1540 nM in the test on A549 cells; 1450 nM in the test on MKN1 cells.

Regarding `CCc1c(F)ccc2cc(O)cc(N3CCc4c(nc(OCC5(CN(C)C)CC5)nc4N4CCCC(n5ccc(C)n5)C4)C3)c12` (stereo not shown) [Example 600, 4-(2-((1-((dimethylamino)methyl)cyclopropyl)methoxy)-4-(3-(3-methyl-1H-pyrazol-1-yl)piperidin-1-yl)-5,8-dihydropyrido[3,4-d]pyrimidin-7(6H)-yl)-5-ethyl-6-fluoronaphthalen-2-ol], the IC50 on KRas G12R came out at 7 nM; with HCT116 cells, 3290 nM; in the test with H358 cells, 808 nM; in the test on PSN1 cells, 605 nM; in the test with H460 cells, 1210 nM; with H727 cells it was 6290 nM. Also, the IC50 is 4980 nM in the test on ASPC1 cells; 25 nM on KRas G12V; 33 nM on KRas G12D; greater than 10000 nM in the test with A549 cells; 1120 nM with MKN1 cells.

Consider `CCc1c(F)ccc2cc(O)cc(N3CCc4c(nc(OC[C@@]56CCCN5C[C@H](F)C6)nc4N4CCCn5nc(C(=O)N6CC7CNC(CO)C7C6)cc5C4)C3)c12` (stereo partly drawn) [Example 607, (5-(7-(8-ethyl-7-fluoro-3-hydroxynaphthalen-1-yl)-2-(((2R,7aS)-2-fluorotetrahydro-1H-pyrrolizin-7a(5H)-yl)methoxy)-5,6,7,8-tetrahydropyrido[3,4-d]pyrimidin-4-yl)-5,6,7,8-tetrahydro-4H-pyrazolo[1,5-a][1,4]diazepin-2-yl)(4-(hydroxymethyl)hexahydropyrrolo[3,4-c]pyrrol-2(1H)-yl)methanone], for which the 50% inhibitory concentration (IC50) was less than 2 nM at KRas G12R; 3580 nM in the test on HCT116 cells; 229 nM in the test with H358 cells; greater than 10000 nM in the test on PSN1 cells; 3410 nM in the test on H460 cells; 1220 nM in the test with H727 cells. Also, the IC50 was 161 nM in the test on ASPC1 cells; less than 2 nM at KRas G12V; less than 2 nM at KRas G12D; 722 nM in the test with A549 cells; 953 nM in the test with MKN1 cells.

With `CCc1c(F)ccc2cc(O)cc(N3CCc4c(nc(OC[C@@]56CCCN5C[C@H](F)C6)nc4N4CCCn5nc(C(=O)N6CCNC7CC6C7)cc5C4)C3)c12` [Example 608, (2,5-diazabicyclo[4.1.1]octan-2-yl)(5-(7-(8-ethyl-7-fluoro-3-hydroxynaphthalen-1-yl)-2-(((2R,7aS)-2-fluorotetrahydro-1H-pyrrolizin-7a(5H)-yl)methoxy)-5,6,7,8-tetrahydropyrido[3,4-d]pyrimidin-4-yl)-5,6,7,8-tetrahydro-4H-pyrazolo[1,5-a][1,4]diazepin-2-yl)methanone], the IC50 was less than 2 nM at KRas G12R; 544 nM in the test with HCT116 cells; 42 nM with H358 cells; greater than 10000 nM in the test with PSN1 cells; 353 nM with H460 cells; 274 nM in the test on H727 cells. Also, the concentration for half-maximal inhibition (IC50) in the test on ASPC1 cells was 46 nM; on KRas G12V, less than 2 nM; on KRas G12D, less than 2 nM; in the test on A549 cells, 215 nM; in the test with MKN1 cells, 49.7 nM.
